Experimental data reported in patent US20030232862A1 (priority 2002, published 2003).

Tests used:
[1] = tested on: PKG activity in HCT116 colon cancer cells; assay: PKG activity assay in drug-treated HCT116 cells; format: cell-based
Excerpt: To test the effect of cGMP-specific PDE inhibition on neoplasia containing the β-catenin mutation, HCT116 colon cancer cells were employed. HCT116 is known to contain the β-catenin mutation, but is known not to contain the APC mutation.
The same procedure is used to grow the HCT116 cells as is used in the SW480 procedure described above. In this experiment, only exisulind and controls were used.

[2] = tested on: PKG activity in SW480 colon cancer cells; assay: PKG activity assay in drug-treated SW480 cells; format: cell-based, human; settings: SW480, 48 hrs, with and without added cGMP; exisulind 200-600 μM, E4021 0.1-10 μM
Excerpt: The novel PKG assay of this invention involves binding to solid phase plural amino acid sequences, each of which contain at least the cGMP-binding (cGB) domain and the phosphorylation site of phosphodiesterase type 5 (“PDE5”). That sequence is known and described in the literature below. […] One way to bind the PDE5 sequences to a solid phase is to express those sequences as a fusion protein of the PDE5 sequence and one member of an amino acid binding pair, and chemically link the other member of that amino acid binding pair to a solid phase (e.g., beads). One binding pair that can be used is glutathione S-transferase (“GST”) and glutathione (“GSH”), with the GST being expressed as a fusion protein with the PDE5 sequence described above, and the GSH bound covalently to the solid phase. In this fashion, the PDE5 sequence/GST fusion protein can be bound to a solid phase simply by passing a solution containing the fusion protein over the solid phase, as described below.
To assay a liquid sample believed to contain PKG using the PDE5-bound solid phase described above, the sample and the solid phase are mixed with phosphorylation buffer containing ^32P-γ-ATP. […]
For each control or drug cell lysate sample to be evaluated, the reaction is started by adding phosphorylation buffer containing 10 μCi ^32P-γ-ATP solution (200 μM ATP, 4.5 mM MgCl; 5 mM KH2PO4; 5 mM K2HPO4;) to each mixture. […]

[3] = Clinical tolerability of exisulind; format: in vivo
Excerpt: This effect is reversible, and liver enzymes return to normal levels when the administered dose of exisulind returns to the traditionally recommended level or when treatment is discontinued. The purpose of using combinations is to allow a lower dose of each to be used.

[4] = tested on: premalignant lesions in mouse mammary gland organ culture; assay: Mammary gland organ culture model; format: cell-based; on mammary gland organ culture: key: −: Not active; +: Slightly active; + +: Moderately active; + + +: Strongly active; + + + +: Highly active
Excerpt: Test compounds identified by the above methods can be tested for antineoplastic activity by their ability to inhibit the incidence of pre-neoplastic lesions in a mammary gland organ culture system. This mouse mammary gland organ culture technique has been successfully used by other investigators to study the effects of known antineoplastic agents such as certain NSAIDs, retinoids, tamoxifen, selenium, and certain natural products, and is useful for validation of the screening method of the present invention.
For example, female BALB/c mice can be treated with a combination of estradiol and progesterone daily, in order to prime the glands to be responsive to hormones in vitro. The animals are sacrificed, and thoracic mammary glands are excised aseptically and incubated for ten days in growth media supplemented with insulin, prolactin, hydrocortisone, and aldosterone. DMBA (7,12-dimethylbenz(a)anthracene) is added to medium to induce the formation of premalignant lesions. Fully developed glands are then deprived of prolactin, hydrocortisone, and aldosterone, resulting in the regression of the glands but not the pre-malignant lesions.
The test compound is dissolved in DMSO and added to the culture media for the duration of the culture period. At the end of the culture period, the glands are fixed in 10% formalin, stained with alum carmine, and mounted on glass slides. The incidence of forming mammary lesions is the ratio of the glands with mammary lesions to […]. The incidence of mammary lesions in test compound treated glands is compared with that of the untreated glands.
The extent of the area occupied by the mammary lesions can be quantitated by projecting an image of the gland onto a digitation pad. The area covered by the gland is traced on the pad and considered as 100% of the area. The space covered by each of the non-regressed structures is also outlined on the digitization pad and quantitated by the computer.
Mammary gland organ culture experiment were performed as previously described (Mehta and Moon, Cancer Research, 46: 5832-5835, 1986).

[5] = tested on: HT-29 colon adenocarcinoma cells; assay: Apoptosis by DNA fragmentation assay in HT-29 cells; format: cell-based, human; settings: Table 9 qualitative profile; further: key: −: Not active; +: Slightly active; + +: Moderately active; + + +: Strongly active; + + + +: Highly active
HT-29 cells = assay: Growth inhibition of HT-29 cells (SRB assay; trypan blue counting in time course); format: cell-based, human; settings: Table 9 qualitative profile

Q: With `CC1=C(CC(=O)O)c2cc(F)ccc2/C1=C\c1ccc(S(C)(=O)=O)cc1` [Exisulind, 5-fluoro-2-methyl-1-(p-methylsulfonylbenzylidene)-3-indenylacetic acid] as the compound, how does the “PKG activation relative to control” value [1] read?
A: PKG activation occurred

Q: And the “PKG activity relative to control” value [2]?
A: increase in a dose-dependent manner

Q: What about the “side effects at recommended dose” value ([3]; 300-400 mg/day) of the same compound?
A: no clinically significant side effects

Q: And the “effect at doses higher than the recommended therapeutic levels” value ([3]; reversible)?
A: elevated levels of liver enzymes

Q: What about the “inhibition of formation of premalignant lesions” value ([4]; FIG. 17) of the same compound?
A: effectively inhibit

Q: What about the “Mammary Gland Organ Culture” value ([4]; Table 9 qualitative profile) of the same compound?
A: + + +

Q: What about the Apoptosis [5] of the same compound?
A: + +

Q: And the “Growth Inhibition” value (HT-29 cells)?
A: + +
